pIC50, pKi: −log10 of the molar value. *1 amine or outer side, *2 acyl side, *3 side chain or, on linkers, in order; H or OH if unused. Where a SMILES comes first, the peptide text is derived from it. Bridges are numbered along the chain shown (N, C = ends). [ ]: non-standard residue; d: D form. The star is where a group is joined. ξ: configuration not given here. X2 = c1ccc(-c2cn(CC3CCCCC3)c([C@@H]3CCCN3*)n2)cc1; dαMeDab = C[C@](CCN[*:3])(N[*:1])C(=O)[*:2]; X1 = NC(CO)C(=O)NC(Cc1ccccc1)C(=O)NCCCCN*; Ala(cPent) = N[C@@H](CC1CCCC1)C(=O)O; Arg(Me) = CNC(=N)NCCC[C@H](N)C(=O)O; d(αMeK) = C[C@@](N)(CCCCN)C(=O)O; Pentanoyl(4-Me) = CC(C)CCC(=O)*; dPhg = N[C@@H](C(=O)O)c1ccccc1; Isobutyryl = CC(C)C(=O)*; ξE = NC(CCC(=O)O)C(=O)O; Abu = CC[C@H](N)C(=O)O; Dap = NC[C@H](N)C(=O)O

One test has as its system Splenocyte. The test can be described thus: Inhibition of mouse splenocyte proliferation at 100 nM relative to control. It counts as functional.
Test [1] has as its target Programmed cell death protein 1/Programmed cell death 1 ligand 1 (Homo sapiens, UniProt Q15116+Q9NZQ7). The test can be described thus: Inhibition of PD-1/PD-L1 (unknown origin) protein-protein interaction by HTRF assay. It counts as protein-complex assay.
The test system of the next test is B16-F10. The experiment in a line: Antitumor activity against mouse B16-F10 cells xenografted in C57BL/6 mouse assessed as reduction in lung metastasis at 5 mg/kg, ip administered once daily for 14 days relative to control. It counts as functional. On the set-up: scale not given: the % may be the effect or the level left. The settings on record: time 14 day.
A short description of test [2]: Inhibition of human full length WDR5/RbBP5 (1 to 538 residues)/ASH2L (1 to 635 residues) expressed in Rosetta2 BL21 (DE3) pLysS incubated for 90 mins by SPA based histone methyltransferase assay.
Test [3] has as its target Histone-lysine N-methyltransferase, H3 lysine-79 specific (Homo sapiens, UniProt Q8TEK3). The test can be described thus: Binding affinity to DOT1L (unknown origin) assessed as inhibition constant.

Histone-lysine N-methyltransferase, H3 lysine-79 specific, sequence (Q8TEK3 whole entry): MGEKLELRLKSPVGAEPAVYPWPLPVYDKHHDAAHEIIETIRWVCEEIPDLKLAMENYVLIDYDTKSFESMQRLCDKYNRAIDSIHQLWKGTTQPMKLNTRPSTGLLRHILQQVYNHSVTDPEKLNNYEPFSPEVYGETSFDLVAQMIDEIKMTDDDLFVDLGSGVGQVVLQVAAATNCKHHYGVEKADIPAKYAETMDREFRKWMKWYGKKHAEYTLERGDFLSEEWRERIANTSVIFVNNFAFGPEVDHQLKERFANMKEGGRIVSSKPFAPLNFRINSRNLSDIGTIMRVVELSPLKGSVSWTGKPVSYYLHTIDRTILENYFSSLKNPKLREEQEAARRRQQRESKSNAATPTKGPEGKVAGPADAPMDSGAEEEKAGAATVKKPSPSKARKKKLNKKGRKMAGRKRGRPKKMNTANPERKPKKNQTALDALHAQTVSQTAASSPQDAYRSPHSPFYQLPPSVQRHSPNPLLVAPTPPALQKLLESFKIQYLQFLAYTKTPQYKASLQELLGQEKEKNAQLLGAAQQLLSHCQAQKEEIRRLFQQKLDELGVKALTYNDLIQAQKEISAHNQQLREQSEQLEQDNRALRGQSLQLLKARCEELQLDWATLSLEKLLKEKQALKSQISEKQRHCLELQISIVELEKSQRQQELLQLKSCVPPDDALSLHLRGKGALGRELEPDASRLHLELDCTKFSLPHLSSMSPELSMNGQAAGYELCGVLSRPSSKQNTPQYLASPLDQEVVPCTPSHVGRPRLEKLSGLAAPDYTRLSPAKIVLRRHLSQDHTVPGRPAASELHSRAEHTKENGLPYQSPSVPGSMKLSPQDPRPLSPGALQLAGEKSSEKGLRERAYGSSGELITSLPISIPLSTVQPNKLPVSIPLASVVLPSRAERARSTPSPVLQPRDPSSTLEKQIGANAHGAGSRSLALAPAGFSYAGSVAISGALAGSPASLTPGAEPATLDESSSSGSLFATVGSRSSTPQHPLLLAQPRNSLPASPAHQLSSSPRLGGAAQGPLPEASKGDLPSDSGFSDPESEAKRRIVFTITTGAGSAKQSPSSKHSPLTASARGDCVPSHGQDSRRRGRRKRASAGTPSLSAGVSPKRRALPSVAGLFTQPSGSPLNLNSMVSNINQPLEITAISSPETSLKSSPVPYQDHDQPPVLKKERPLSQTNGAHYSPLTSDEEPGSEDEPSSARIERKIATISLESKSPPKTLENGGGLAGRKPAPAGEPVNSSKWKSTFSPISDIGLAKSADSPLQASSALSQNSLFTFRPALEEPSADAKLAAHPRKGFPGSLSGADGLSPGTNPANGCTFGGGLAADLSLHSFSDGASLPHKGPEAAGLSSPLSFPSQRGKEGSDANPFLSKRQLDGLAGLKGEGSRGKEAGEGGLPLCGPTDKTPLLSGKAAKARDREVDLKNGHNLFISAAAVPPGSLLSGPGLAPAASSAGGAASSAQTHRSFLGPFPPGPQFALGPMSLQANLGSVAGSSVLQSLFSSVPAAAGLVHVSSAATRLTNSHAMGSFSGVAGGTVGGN
Programmed cell death protein 1/Programmed cell death 1 ligand 1, sequence (Q15116 whole entry): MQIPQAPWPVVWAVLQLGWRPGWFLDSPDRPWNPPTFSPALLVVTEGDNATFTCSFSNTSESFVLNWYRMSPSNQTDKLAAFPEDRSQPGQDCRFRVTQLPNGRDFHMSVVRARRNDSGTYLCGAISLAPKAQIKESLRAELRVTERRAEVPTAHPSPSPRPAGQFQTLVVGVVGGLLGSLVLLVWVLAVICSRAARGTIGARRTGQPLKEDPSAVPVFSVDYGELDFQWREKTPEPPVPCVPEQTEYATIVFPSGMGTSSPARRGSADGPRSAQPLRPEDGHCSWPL
Programmed cell death protein 1/Programmed cell death 1 ligand 1, sequence (Q9NZQ7 whole entry): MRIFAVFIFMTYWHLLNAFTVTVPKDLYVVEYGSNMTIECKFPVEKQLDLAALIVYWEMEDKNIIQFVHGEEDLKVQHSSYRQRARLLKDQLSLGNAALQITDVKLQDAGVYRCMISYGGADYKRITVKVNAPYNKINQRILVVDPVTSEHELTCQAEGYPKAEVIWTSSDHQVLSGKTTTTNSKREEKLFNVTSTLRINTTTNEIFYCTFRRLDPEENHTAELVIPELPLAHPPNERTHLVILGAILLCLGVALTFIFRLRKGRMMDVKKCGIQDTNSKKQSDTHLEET

As for `NCCCC[C@H](NC(=O)N[C@@H](CC(N)=O)C(=O)NNC(=O)[C@@H](N)CO)C(=O)O`, the inhibition (commonly the share of the control response that was lost under treatment) at 0.1 µM in the test on Splenocyte stood at 87%. The same measure, in the same setting: the figure for `C[C@H](O)[C@H](NC(=O)N[C@@H](CC(N)=O)C(=O)NNC(=O)[C@@H](N)CO)C(=O)O` is 68%. In the case of `CC(O)[C@H](NC(=O)N[C@@H](CC(N)=O)C1NC([C@@H](N)CO)=NO1)C(=O)O` (stereo partly drawn), in test [1], the pIC50 (commonly the negative decadic logarithm of the IC50, by convention in mol/L) was 7.77. `C[C@@H](O)[C@@H]1NCC(=O)C(NC(=O)[C@@H](N)CO)CCC(=O)NCCCCC(C(=O)N[C@@H](CO)C(=O)N[C@@H](Cc2ccccc2)C(N)=O)NC(=O)[C@H](CO)NC1=O` (stereo partly drawn): in the test with B16-F10, the Activity is 54%. On to `C[C@@H](O)[C@H](NC(=O)[C@H](CC(N)=O)NC(=O)[C@@H](N)CO)C(=O)N[C@@H](CO)C(=O)NC(CCC(=O)NCCCCNC(=O)C(Cc1ccccc1)NC(=O)C(N)CO)C(N)=O` (stereo partly drawn) (H-SNTS[ξE](X1)-NH2), for which, in the test with B16-F10, the Activity stood at 4%. In the case of `CC[C@@H]1NC(=O)[C@H](CCCNC(=N)N)NC(=O)[C@](C)(NC(=O)C(C)C)CCCCNC(=O)[C@@H](c2ccccc2)NC1=O` (Isobutyryl-[d(αMeK)]R[Abu][dPhg]; lactam 1-C), in test [2], the pIC50 was 9.05.

The compound `CC[C@@H]1NC(=O)[C@H](CCCNC(=N)NC)NC(=O)[C@](C)(NC(=O)C(C)C)CCNC(=O)[C@@H](c2ccccc2)NC1=O` (Isobutyryl-[dαMeDab][Arg(Me)][Abu][dPhg]; lactam 1-C) showed a pIC50 in test [2] of 9.05. As to `CC(C)CCC(=O)N1CCC[C@H]1C(=O)N[C@H](C(=O)N[C@@H](CN)C(=O)N[C@@H](CC1CCCC1)C(=O)N1CCC[C@H]1c1nc(-c2ccccc2)cn1CC1CCCCC1)C(C)C` ({Pentanoyl(4-Me)}-PV[Dap][Ala(cPent)]-X2), in test [3], the pKi (as a rule, −log10 of the Ki, conventionally taken in molar units) is 7.64.

The record behind these values is ChEMBL document CHEMBL5584291, “Rational design of small-sized peptidomimetic inhibitors disrupting protein-protein interaction” (RSC Med Chem, 2024).
